According to the supplement of paper PMC6045584:
± gives the standard deviation of the averaged measurements.

Key:
[1] = compound: C[C@@H]1CN(CC(=O)Nc2ccc3c(c2)Cc2cccc(-c4cc(=O)cc(N5CCOCC5)o4)c2S3)C[C@H](C)O1; assay: surviving fraction relative to DMSO-only wells; higher = less growth inhibition; conditions: exposure time: 5 days
Summary of the method: (§1)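 Surviving fraction was calculated by normalising CellTiter-Glo luminescence to the median of DMSO-only wells. Tumour cell lines in log phase were seeded in 384-well plates at 250–500 cells per well, and 24 hours later were exposed continuously for five days to inhibitors at 0.5, 1, 5, 10, 50, 100, 500 and 1000 nM.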

BMN-673 = compound: Cn1ncnc1[C@H]1c2n[nH]c(=O)c3cc(F)cc(c23)N[C@@H]1c1ccc(F)cc1 [BMN-673]; assay: as above; conditions: exposure time: 5 days
Summary of the method: as §1

Test System | surviving fraction ([1]; 0.5 nM) | surviving fraction ([1]; 1 nM) | surviving fraction ([1]; 5 nM) | surviving fraction ([1]; 10 nM) | surviving fraction ([1]; 50 nM) | surviving fraction ([1]; 100 nM) | surviving fraction ([1]; 500 nM) | surviving fraction ([1]; 1000 nM) | surviving fraction (BMN-673; 0.5 nM) | surviving fraction (BMN-673; 1 nM) | surviving fraction (BMN-673; 5 nM) | surviving fraction (BMN-673; 10 nM) | surviving fraction (BMN-673; 50 nM) | surviving fraction (BMN-673; 100 nM) | surviving fraction (BMN-673; 500 nM) | surviving fraction (BMN-673; 1000 nM)
H23 LUNG | 1.08 ± 0.042 | 1.05 ± 0.021 | 1.11 ± 0.048 | 1.1 ± 0.033 | 1.09 ± 0.083 | 1.17 ± 0.056 | 1.06 ± 0.036 | 1.05 ± 0.045 | 1.07 ± 0.04 | 1.07 ± 0.056 | 1.06 ± 0.054 | 0.937 ± 0.014 | 0.779 ± 0.024 | 0.688 ± 0.055 | 0.507 ± 0.23 | 0.238 ± 0.02
HCC78 LUNG | 1.13 ± 0.16 | 0.941 ± 0.26 | 1.07 ± 0.11 | 1.21 ± 0.21 | 1.15 ± 0.17 | 1.41 ± 0.29 | 1.27 ± 0.39 | 1.29 ± 0.013 | 1.06 ± 0.077 | 1 ± 0.097 | 1.04 ± 0.098 | 0.931 ± 0.21 | 0.678 ± 0.19 | 0.47 ± 0.084 | 0.117 ± 0.013 | 0.0383 ± 0.013
HCC202 BREAST | 1.01 ± 0.17 | 0.911 ± 0.089 | 0.845 ± 0.24 | 1.11 ± 0.26 | 0.84 ± 0.11 | 0.946 ± 0.25 | 0.845 ± 0.18 | 0.838 ± 0.28 | 0.932 ± 0.39 | 1.15 ± 0.44 | 0.688 ± 0.18 | 0.769 ± 0.34 | 0.661 ± 0.13 | 0.566 ± 0.14 | 0.81 ± 0.05 | 0.671 ± 0.11
HCC1395 BREAST | 0.955 ± 0.14 | 0.962 ± 0.022 | 0.936 ± 0.062 | 0.936 ± 0.035 | 0.92 ± 0.072 | 0.995 ± 0.08 | 0.919 ± 0.09 | 0.965 ± 0.12 | 1 ± 0.13 | 0.991 ± 0.081 | 0.86 ± 0.054 | 0.967 ± 0.045 | 0.892 ± 0.064 | 0.8195 ± 0.0048 | 0.715 ± 0.039 | 0.637 ± 0.12
HCC1806 BREAST | 1.05 ± 0.14 | 1.07 ± 0.086 | 1.12 ± 0.08 | 1.1 ± 0.035 | 0.959 ± 0.067 | 0.949 ± 0.12 | 0.699 ± 0.065 | 0.477 ± 0.024 | 0.904 ± 0.043 | 0.875 ± 0.021 | 0.451 ± 0.035 | 0.313 ± 0.021 | 0.234 ± 0.0079 | 0.186 ± 0.0061 | 0.171 ± 0.017 | 0.168 ± 0.015
HCC1954 BREAST | 0.9487 ± 0.0025 | 0.93 ± 0.092 | 0.875 ± 0.086 | 1.03 ± 0.11 | 0.742 ± 0.01 | 0.771 ± 0.051 | 0.604 ± 0.09 | 0.504 ± 0.12 | 1.01 ± 0.17 | 1.34 ± 0.34 | 1.25 ± 0.17 | 1.21 ± 0.12 | 0.907 ± 0.038 | 0.804 ± 0.042 | 0.71 ± 0.12 | 0.74 ± 0.072
HCT15 LARGE INTESTINE | 1.05 ± 0.017 | 1.04 ± 0.061 | 1.05 ± 0.05 | 1.05 ± 0.052 | 1 ± 0.066 | 1.01 ± 0.041 | 1.05 ± 0.052 | 1.08 ± 0.017 | 1.09 ± 0.078 | 1.03 ± 0.086 | 1.06 ± 0.015 | 0.945 ± 0.021 | 0.584 ± 0.14 | 0.44 ± 0.058 | 0.146 ± 0.022 | 0.102 ± 0.0078
HELA CERVIX | 1.1 ± 0.048 | 1.06 ± 0.049 | 1.115 ± 0.011 | 1.06 ± 0.039 | 1.13 ± 0.03 | 1.11 ± 0.021 | 1.21 ± 0.029 | 1.22 ± 0.072 | 1 ± 0.045 | 1 ± 0.058 | 1.07 ± 0.038 | 1.031 ± 0.0089 | 1.1 ± 0.11 | 1.14 ± 0.11 | 0.736 ± 0.037 | 0.606 ± 0.035
HOS BONE | 1.03 ± 0.041 | 1.02 ± 0.032 | 1.06 ± 0.027 | 1.06 ± 0.05 | 1.02 ± 0.039 | 1.01 ± 0.022 | 0.988 ± 0.044 | 0.901 ± 0.048 | 1.04 ± 0.037 | 1 ± 0.018 | 0.976 ± 0.018 | 0.974 ± 0.036 | 0.993 ± 0.04 | 0.96 ± 0.036 | 0.596 ± 0.022 | 0.282 ± 0.026
HOSMNG BONE | 1 ± 0.065 | 0.944 ± 0.013 | 0.982 ± 0.051 | 0.978 ± 0.044 | 1.03 ± 0.011 | 0.9887 ± 0.0031 | 1.01 ± 0.043 | 0.998 ± 0.056 | 1.07 ± 0.056 | 1.04 ± 0.029 | 0.968 ± 0.017 | 1.01 ± 0.019 | 1.03 ± 0.031 | 1.05 ± 0.046 | 0.849 ± 0.047 | 0.645 ± 0.023
HSSYII SYNOVIAL | 0.975 ± 0.027 | 0.956 ± 0.032 | 0.931 ± 0.015 | 0.99 ± 0.041 | 0.891 ± 0.011 | 0.867 ± 0.043 | 0.84 ± 0.055 | 0.74 ± 0.041 | 0.867 ± 0.022 | 0.819 ± 0.015 | 0.506 ± 0.026 | 0.34 ± 0.017 | 0.19 ± 0.0066 | 0.132 ± 0.011 | 0.0702 ± 0.0064 | 0.06017 ± 0.00029
HT1080 SOFT TISSUE | 1.01 ± 0.026 | 1.04 ± 0.027 | 1.01 ± 0.04 | 1.02 ± 0.022 | 0.987 ± 0.054 | 1.01 ± 0.051 | 0.962 ± 0.016 | 0.846 ± 0.029 | 1 ± 0.037 | 0.967 ± 0.042 | 0.73 ± 0.024 | 0.524 ± 0.02 | 0.375 ± 0.018 | 0.312 ± 0.0085 | 0.204 ± 0.0027 | 0.187 ± 0.014
HU09 BONE | 0.994 ± 0.096 | 0.996 ± 0.1 | 1.13 ± 0.061 | 1.1 ± 0.14 | 1.03 ± 0.12 | 1.42 ± 0.58 | 0.778 ± 0.065 | 0.763 ± 0.14 | 0.97 ± 0.066 | 0.978 ± 0.056 | 0.898 ± 0.067 | 0.812 ± 0.11 | 0.486 ± 0.046 | 0.437 ± 0.038 | 0.104 ± 0.018 | 0.058 ± 0.008
HUO3N1 BONE | 1.01 ± 0.026 | 1 ± 0.031 | 1.05 ± 0.041 | 1.04 ± 0.041 | 1.04 ± 0.023 | 1.03 ± 0.025 | 0.979 ± 0.027 | 0.907 ± 0.026 | 0.991 ± 0.023 | 0.998 ± 0.043 | 0.945 ± 0.038 | 0.9 ± 0.014 | 0.8017 ± 0.0063 | 0.658 ± 0.015 | 0.448 ± 0.03 | 0.357 ± 0.021
JIMT1 BREAST | 0.91 ± 0.034 | 0.924 ± 0.022 | 0.936 ± 0.02 | 0.952 ± 0.031 | 0.956 ± 0.013 | 1 ± 0.038 | 0.971 ± 0.03 | 0.887 ± 0.024 | 0.928 ± 0.041 | 0.913 ± 0.025 | 0.848 ± 0.011 | 0.822 ± 0.011 | 0.71 ± 0.035 | 0.617 ± 0.063 | 0.474 ± 0.027 | 0.395 ± 0.033
JURKAT HAEMATOPOIETIC AND LYMPHOID TISSUE | 1.1 ± 0.013 | 1.123 ± 0.0098 | 1.08 ± 0.016 | 1.09 ± 0.026 | 1.05 ± 0.026 | 1.03 ± 0.029 | 1.01 ± 0.018 | 0.96 ± 0.029 | 1.04 ± 0.027 | 1.04 ± 0.015 | 0.863 ± 0.035 | 0.838 ± 0.014 | 0.601 ± 0.049 | 0.503 ± 0.033 | 0.123 ± 0.007 | 0.0493 ± 0.0047
KPD BONE | 0.979 ± 0.039 | 0.946 ± 0.05 | 1.02 ± 0.047 | 1.01 ± 0.068 | 1 ± 0.092 | 1.01 ± 0.049 | 0.865 ± 0.02 | 0.7 ± 0.034 | 0.971 ± 0.046 | 0.877 ± 0.053 | 0.814 ± 0.045 | 0.463 ± 0.28 | 0.531 ± 0.03 | 0.437 ± 0.02 | 0.338 ± 0.01 | 0.3337 ± 0.0032
LM7 BONE | 0.909 ± 0.046 | 0.946 ± 0.031 | 0.94 ± 0.048 | 1.09 ± 0.064 | 0.947 ± 0.052 | 0.896 ± 0.033 | 0.798 ± 0.063 | 0.78 ± 0.097 | 0.975 ± 0.042 | 0.987 ± 0.068 | 0.764 ± 0.051 | 0.573 ± 0.028 | 0.395 ± 0.027 | 0.312 ± 0.028 | 0.227 ± 0.015 | 0.197 ± 0.024
LNCAP PROSTATE | 1.08 ± 0.12 | 1.12 ± 0.15 | 1.11 ± 0.11 | 1.12 ± 0.16 | 1.4 ± 0.029 | 1.43 ± 0.095 | 1.4 ± 0.11 | 1.21 ± 0.15 | 0.85 ± 0.052 | 0.849 ± 0.05 | 0.604 ± 0.059 | 0.407 ± 0.037 | 0.297 ± 0.015 | 0.254 ± 0.0095 | 0.181 ± 0.014 | 0.165 ± 0.022
MCF7 BREAST | 0.946 ± 0.053 | 0.874 ± 0.035 | 0.902 ± 0.033 | 0.888 ± 0.012 | 0.99 ± 0.058 | 0.955 ± 0.03 | 0.933 ± 0.019 | 1 ± 0.06 | 0.952 ± 0.053 | 0.95 ± 0.069 | 0.838 ± 0.029 | 0.802 ± 0.046 | 0.756 ± 0.03 | 0.732 ± 0.026 | 0.679 ± 0.024 | 0.62 ± 0.011
